Measurements as given in ChEMBL document CHEMBL1649267, “Molecular epidemiology and mechanisms of carbapenem resistance in Pseudomonas aeruginosa” (2009).
Values after ≈ are worked out from the molar mass of the structure shown.

Legend:
Pseudomonas aeruginosa [1] = format: functional; conditions: isolate Paebeta-03
Pseudomonas aeruginosa [2] = format: functional; conditions: isolate Paebeta-05
Pseudomonas aeruginosa [3] = format: functional; conditions: isolate Paebeta-09
Pseudomonas aeruginosa [4] = format: functional; conditions: isolate Paebeta-11
Pseudomonas aeruginosa [5] = format: functional; conditions: isolate Paebeta-05; remark: listed apart in the source
Pseudomonas aeruginosa [6] = format: functional; conditions: isolate Paebeta-32
Pseudomonas aeruginosa [7] = format: functional; conditions: isolate Paebeta-26
Pseudomonas aeruginosa [8] = format: functional; conditions: isolate Paebeta-07
Pseudomonas aeruginosa [9] = format: functional; conditions: isolate Paebeta-24
Pseudomonas aeruginosa [10] = format: functional; conditions: isolate Paebeta-07; remark: listed apart in the source
Pseudomonas aeruginosa [11] = format: functional; conditions: isolate Paebeta-17
Pseudomonas aeruginosa [12] = format: functional; conditions: isolate Paebeta-30
Pseudomonas aeruginosa [13] = format: functional; conditions: isolate Paebeta-24; remark: listed apart in the source
Pseudomonas aeruginosa [14] = format: functional; conditions: isolate Paebeta-01
Pseudomonas aeruginosa [15] = format: functional; conditions: isolate Paebeta-17; remark: listed apart in the source
Pseudomonas aeruginosa [16] = format: functional; conditions: isolate Paebeta-29
Pseudomonas aeruginosa [17] = format: functional; conditions: isolate Paebeta-30; remark: listed apart in the source
Pseudomonas aeruginosa [18] = format: functional; conditions: isolate Paebeta-09; remark: listed apart in the source
Pseudomonas aeruginosa [19] = format: functional; conditions: isolate Paebeta-11; remark: listed apart in the source
Pseudomonas aeruginosa [20] = format: functional; conditions: isolate Paebeta-19
Pseudomonas aeruginosa [21] = format: functional; conditions: isolate Paebeta-31
Pseudomonas aeruginosa [22] = format: functional; conditions: isolate Paebeta-16
Pseudomonas aeruginosa [23] = format: functional; conditions: isolate Paebeta-31; remark: listed apart in the source
Pseudomonas aeruginosa [24] = format: functional; conditions: isolate Paebeta-08
Pseudomonas aeruginosa [25] = format: functional; conditions: isolate Paebeta-26; remark: listed apart in the source
Pseudomonas aeruginosa [26] = format: functional; conditions: isolate Paebeta-12
Pseudomonas aeruginosa [27] = format: functional; conditions: isolate Paebeta-16; remark: listed apart in the source
Pseudomonas aeruginosa [28] = format: functional; conditions: isolate Paebeta-29; remark: listed apart in the source
Pseudomonas aeruginosa [29] = format: functional; conditions: isolate Paebeta-13
Pseudomonas aeruginosa [30] = format: functional; conditions: isolate Paebeta-04
Pseudomonas aeruginosa [31] = format: functional; conditions: isolate Paebeta-02
Pseudomonas aeruginosa [32] = format: functional; conditions: isolate Paebeta-14
Pseudomonas aeruginosa [33] = format: functional; conditions: isolate Paebeta-10
Pseudomonas aeruginosa [34] = format: functional; conditions: isolate Paebeta-02; remark: listed apart in the source
Pseudomonas aeruginosa [35] = format: functional; conditions: isolate Paebeta-28
Pseudomonas aeruginosa [36] = format: functional; conditions: isolate Paebeta-25
Pseudomonas aeruginosa [37] = format: functional; conditions: isolate Paebeta-01; remark: listed apart in the source
Pseudomonas aeruginosa [38] = format: functional; conditions: isolate Paebeta-06
Pseudomonas aeruginosa [39] = format: functional; conditions: isolate Paebeta-19; remark: listed apart in the source
Pseudomonas aeruginosa [40] = format: functional; conditions: isolate Paebeta-04; remark: listed apart in the source
Pseudomonas aeruginosa [41] = format: functional; conditions: isolate Paebeta-23
Pseudomonas aeruginosa [42] = format: functional; conditions: isolate Paebeta-21
Pseudomonas aeruginosa [43] = format: functional; conditions: isolate Paebeta-20
Pseudomonas aeruginosa [44] = format: functional; conditions: isolate Paebeta-15
Pseudomonas aeruginosa [45] = format: functional; conditions: isolate Paebeta-32; remark: listed apart in the source
Pseudomonas aeruginosa [46] = format: functional; conditions: isolate Paebeta-22
Pseudomonas aeruginosa [47] = format: functional; conditions: isolate Paebeta-06; remark: listed apart in the source
Pseudomonas aeruginosa [48] = format: functional; conditions: isolate Paebeta-18
Pseudomonas aeruginosa [49] = format: functional; conditions: isolate Paebeta-03; remark: listed apart in the source
Pseudomonas aeruginosa [50] = format: functional; conditions: isolate Paebeta-28; remark: listed apart in the source
Pseudomonas aeruginosa [51] = format: functional; conditions: isolate Paebeta-20; remark: listed apart in the source
Pseudomonas aeruginosa [52] = assay: microbe, parasite or virus in culture; conditions: isolate Paebeta-12
Description: Antibacterial activity against mexB, mexY and mexD expressing Pseudomonas aeruginosa isolate Paebeta-12 harboring A residue at 105 position in PDC- 2 and polymorphic OprD gene by Etest method in presence of cloxacillin

Pseudomonas aeruginosa [53] = format: functional; conditions: isolate Paebeta-15; remark: listed apart in the source
Pseudomonas aeruginosa [54] = format: functional; conditions: isolate Paebeta-14; remark: listed apart in the source
Pseudomonas aeruginosa [55] = format: functional; conditions: isolate Paebeta-22; remark: listed apart in the source
Pseudomonas aeruginosa [56] = format: functional; conditions: isolate Paebeta-21; remark: listed apart in the source
Pseudomonas aeruginosa [57] = format: functional; conditions: isolate Paebeta-13; remark: listed apart in the source
Pseudomonas aeruginosa [58] = format: functional; conditions: isolate Paebeta-10; remark: listed apart in the source
Pseudomonas aeruginosa [59] = format: functional; conditions: isolate Paebeta-08; remark: listed apart in the source
Pseudomonas aeruginosa [60] = format: functional; conditions: isolate Paebeta-23; remark: listed apart in the source
Pseudomonas aeruginosa [61] = format: functional; conditions: isolate Paebeta-25; remark: listed apart in the source

C[C@@H](O)[C@H]1C(=O)N2C(C(=O)O)=C(S[C@@H]3CN[C@H](C(=O)N(C)C)C3)[C@H](C)[C@H]12 [MEROPENEM]
MIC (Pseudomonas aeruginosa [1]): 8 µg/mL (≈ 20.9 µM) | MIC (Pseudomonas aeruginosa [2]): 8 µg/mL (≈ 20.9 µM) | MIC (Pseudomonas aeruginosa [3]): 4 µg/mL (≈ 10.4 µM) | MIC (Pseudomonas aeruginosa [4]): 8 µg/mL (≈ 20.9 µM) | MIC (Pseudomonas aeruginosa [5]): 8 µg/mL (≈ 20.9 µM) | MIC (Pseudomonas aeruginosa [6]): 8 µg/mL (≈ 20.9 µM) | MIC (Pseudomonas aeruginosa [7]): 4 µg/mL (≈ 10.4 µM) | MIC (Pseudomonas aeruginosa [8]): 2 µg/mL (≈ 5.22 µM) | MIC (Pseudomonas aeruginosa [9]): 32 µg/mL (≈ 83.4 µM) | MIC (Pseudomonas aeruginosa [10]): 8 µg/mL (≈ 20.9 µM) | MIC (Pseudomonas aeruginosa [11]): 8 µg/mL (≈ 20.9 µM) | MIC (Pseudomonas aeruginosa [12]): 8 µg/mL (≈ 20.9 µM) | MIC (Pseudomonas aeruginosa [13]): 16 µg/mL (≈ 41.7 µM) | MIC (Pseudomonas aeruginosa [14]): 8 µg/mL (≈ 20.9 µM) | MIC (Pseudomonas aeruginosa [15]): 4 µg/mL (≈ 10.4 µM) | MIC (Pseudomonas aeruginosa [16]): 32 µg/mL (≈ 83.4 µM) | MIC (Pseudomonas aeruginosa [17]): 8 µg/mL (≈ 20.9 µM) | MIC (Pseudomonas aeruginosa [18]): 8 µg/mL (≈ 20.9 µM) | MIC (Pseudomonas aeruginosa [19]): 2 µg/mL (≈ 5.22 µM) | MIC (Pseudomonas aeruginosa [20]): 4 µg/mL (≈ 10.4 µM) | MIC (Pseudomonas aeruginosa [21]): 8 µg/mL (≈ 20.9 µM) | MIC (Pseudomonas aeruginosa [22]): 2 µg/mL (≈ 5.22 µM) | MIC (Pseudomonas aeruginosa [23]): 8 µg/mL (≈ 20.9 µM) | MIC (Pseudomonas aeruginosa [24]): 8 µg/mL (≈ 20.9 µM) | MIC (Pseudomonas aeruginosa [25]): 4 µg/mL (≈ 10.4 µM) | MIC (Pseudomonas aeruginosa [26]): 8 µg/mL (≈ 20.9 µM) | MIC (Pseudomonas aeruginosa [27]): 4 µg/mL (≈ 10.4 µM) | MIC (Pseudomonas aeruginosa [28]): 32 µg/mL (≈ 83.4 µM) | MIC (Pseudomonas aeruginosa [29]): 2 µg/mL (≈ 5.22 µM) | MIC (Pseudomonas aeruginosa [30]): 16 µg/mL (≈ 41.7 µM) | MIC (Pseudomonas aeruginosa [31]): 4 µg/mL (≈ 10.4 µM) | MIC (Pseudomonas aeruginosa [32]): 2 µg/mL (≈ 5.22 µM) | MIC (Pseudomonas aeruginosa [33]): 8 µg/mL (≈ 20.9 µM) | MIC (Pseudomonas aeruginosa [34]): 4 µg/mL (≈ 10.4 µM) | MIC (Pseudomonas aeruginosa [35]): 4 µg/mL (≈ 10.4 µM) | MIC (Pseudomonas aeruginosa [36]): 8 µg/mL (≈ 20.9 µM) | MIC (Pseudomonas aeruginosa [37]): 8 µg/mL (≈ 20.9 µM) | MIC (Pseudomonas aeruginosa [38]): 8 µg/mL (≈ 20.9 µM) | MIC (Pseudomonas aeruginosa [39]): 4 µg/mL (≈ 10.4 µM) | MIC (Pseudomonas aeruginosa [40]): 16 µg/mL (≈ 41.7 µM) | MIC (Pseudomonas aeruginosa [41]): 16 µg/mL (≈ 41.7 µM) | MIC (Pseudomonas aeruginosa [42]): 32 µg/mL (≈ 83.4 µM) | MIC (Pseudomonas aeruginosa [43]): 8 µg/mL (≈ 20.9 µM) | MIC (Pseudomonas aeruginosa [44]): 4 µg/mL (≈ 10.4 µM) | MIC (Pseudomonas aeruginosa [45]): 16 µg/mL (≈ 41.7 µM) | MIC (Pseudomonas aeruginosa [46]): 4 µg/mL (≈ 10.4 µM) | MIC (Pseudomonas aeruginosa [47]): 2 µg/mL (≈ 5.22 µM) | MIC (Pseudomonas aeruginosa [48]): 32 µg/mL (≈ 83.4 µM) | MIC (Pseudomonas aeruginosa [49]): 4 µg/mL (≈ 10.4 µM) | MIC (Pseudomonas aeruginosa [50]): 4 µg/mL (≈ 10.4 µM) | MIC (Pseudomonas aeruginosa [51]): 4 µg/mL (≈ 10.4 µM) | MIC (Pseudomonas aeruginosa [52]): 2 µg/mL (≈ 5.22 µM) | MIC (Pseudomonas aeruginosa [53]): 8 µg/mL (≈ 20.9 µM) | MIC (Pseudomonas aeruginosa [54]): 4 µg/mL (≈ 10.4 µM) | MIC (Pseudomonas aeruginosa [55]): 1 µg/mL (≈ 2.61 µM) | MIC (Pseudomonas aeruginosa [56]): 16 µg/mL (≈ 41.7 µM) | MIC (Pseudomonas aeruginosa [57]): 8 µg/mL (≈ 20.9 µM) | MIC (Pseudomonas aeruginosa [58]): 4 µg/mL (≈ 10.4 µM) | MIC (Pseudomonas aeruginosa [59]): 2 µg/mL (≈ 5.22 µM) | MIC (Pseudomonas aeruginosa [60]): 8 µg/mL (≈ 20.9 µM) | MIC (Pseudomonas aeruginosa [61]): 8 µg/mL (≈ 20.9 µM)
